Test results published in ChEMBL document CHEMBL3616428, “Recent developments regarding the use of thieno[2,3-d]pyrimidin-4-one derivatives in medicinal chemistry, with a focus on their synthesis and anticancer properties” (Eur J Med Chem, 2015).
pIC50: −log10 of the molar value.

Tests used:
[1] = target: Poly [ADP-ribose] polymerase 1 (Homo sapiens, UniProt P09874); assay: Inhibition of PARP1 (unknown origin)
HCT-116 [2] = assay: Anticancer activity against human HCT116 cells; format: functional, cell-based
HCT-116 [3] = assay: Potency index, ratio imatinib IC50 to compound IC50 for human HCT116 cells; format: functional
[4] = Anticancer activity against human Chronic myeloid leukemia cells at 10 uM after 24 hrs by MTT assay; format: functional; details: Leukemia cell
[5] = Anticancer activity against human Chronic myeloid leukemia cells at 20 uM after 24 hrs by MTT assay; format: functional; details: Leukemia cell
HepG2 [6] = assay: Anticancer activity against human HepG2 cells at 40 ug/ml after 72 hrs by MTT assay; format: functional; details: HepG2, 72 h
MCF7 [7] = assay: Anticancer activity against human MCF7 cells at 40 ug/ml after 72 hrs by MTT assay; format: functional; details: MCF7, 72 h
HepG2 [8] = assay: Anticancer activity against human HepG2 cells after 72 hrs by MTT assay; format: functional, cell-based; details: HepG2, 72 h
[9] = Anticancer activity against human […] cells after 72 hrs by MTT assay; format: functional, cell-based
MCF7 [10] = assay: Anticancer activity against human MCF7 cells after 72 hrs by MTT assay; format: functional, cell-based; details: MCF7, 72 h
HepG2 [11] = assay: Anticancer activity against human HepG2 cells; format: functional, cell-based

Chain of Poly [ADP-ribose] polymerase 1 (P09874 whole entry): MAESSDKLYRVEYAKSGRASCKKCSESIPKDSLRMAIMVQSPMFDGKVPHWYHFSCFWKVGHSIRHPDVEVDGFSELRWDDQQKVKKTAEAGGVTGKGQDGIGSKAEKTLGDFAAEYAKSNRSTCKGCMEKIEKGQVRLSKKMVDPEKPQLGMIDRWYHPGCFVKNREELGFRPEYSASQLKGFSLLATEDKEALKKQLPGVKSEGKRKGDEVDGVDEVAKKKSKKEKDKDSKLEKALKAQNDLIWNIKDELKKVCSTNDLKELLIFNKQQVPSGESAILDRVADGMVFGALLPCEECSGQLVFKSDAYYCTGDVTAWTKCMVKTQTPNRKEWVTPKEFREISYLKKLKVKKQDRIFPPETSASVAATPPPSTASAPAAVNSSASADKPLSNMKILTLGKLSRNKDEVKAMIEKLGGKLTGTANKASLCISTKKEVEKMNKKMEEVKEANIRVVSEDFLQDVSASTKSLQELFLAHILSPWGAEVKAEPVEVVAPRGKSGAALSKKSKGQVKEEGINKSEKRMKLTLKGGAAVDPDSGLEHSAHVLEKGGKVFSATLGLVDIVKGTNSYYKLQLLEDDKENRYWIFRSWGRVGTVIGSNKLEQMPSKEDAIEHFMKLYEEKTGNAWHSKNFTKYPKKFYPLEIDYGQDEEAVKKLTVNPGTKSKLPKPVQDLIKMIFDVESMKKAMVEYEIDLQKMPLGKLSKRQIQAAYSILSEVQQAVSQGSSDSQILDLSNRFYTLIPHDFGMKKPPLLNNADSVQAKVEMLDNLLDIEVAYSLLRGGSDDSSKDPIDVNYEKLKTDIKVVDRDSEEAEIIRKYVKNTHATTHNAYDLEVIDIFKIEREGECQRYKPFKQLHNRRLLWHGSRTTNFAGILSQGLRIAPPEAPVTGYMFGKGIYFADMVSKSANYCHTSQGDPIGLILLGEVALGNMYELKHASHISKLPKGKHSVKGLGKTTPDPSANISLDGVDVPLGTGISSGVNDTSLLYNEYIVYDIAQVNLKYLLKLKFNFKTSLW

## NCc1nc2sc3c(c2c(=O)[nH]1)CCC3
[1]
  pIC50: 4.77

## O=c1[nH]c(CNc2ccccc2)nc2sc3c(c12)CCCCCC3
HCT-116 [2]
  pIC50: 4.92
HCT-116 [3]
  Ratio IC50: 2.89

## Cc1ccc(NC(=O)c2ccc(CN3CCN(C)CC3)cc2)cc1Nc1nccc(-c2cccnc2)n1 [IMATINIB]
HCT-116 [2]
  pIC50: 4.46

## CC(C)(O)C#Cc1ncnc2sc3c(c12)CCC3
[4]
  inhibition at 10 µM: 30%
[5]
  inhibition at 20 µM: 54%

## O=c1[nH]cc(F)c(=O)[nH]1 [FLUOROURACIL]
HepG2 [6]
  inhibition at 40 µg/mL: 68.2%
MCF7 [7]
  inhibition at 40 µg/mL: 68.2%

## O=c1c2c3c(sc2ncn1Cc1ccc(Br)cc1)CCC=C3
HepG2 [6]
  inhibition at 40 µg/mL: 66.8%
MCF7 [7]
  inhibition at 40 µg/mL: 66.8%
HepG2 [8]
  pIC50: 4.83
[9]
  pIC50: 4.35
MCF7 [10]
  pIC50: 4.10

## CC(=O)OC[C@H](OC(C)=O)[C@@H](OC(C)=O)[C@H](OC(C)=O)[C@H](OC(C)=O)c1nc2c3c4c(sc3nc(C)n2n1)CCc1ccccc1-4
HepG2 [11]
  pIC50: 4.92

## O=c1[nH]c(CNc2ccc(Cl)cc2)nc2sc3c(c12)CCCCCC3
HCT-116 [2]
  pIC50: 4.91
HCT-116 [3]
  Ratio IC50: 1.07

## Cc1csc2ncnc(C#Cc3ccccn3)c12
[4]
  inhibition at 10 µM: 32%
[5]
  inhibition at 20 µM: 60%
